Assay in all cases: NCI anticancer screen, dose series, 48 h
In test [1] the test system is LOX IMVI melanoma.
The subject of test [2] is HCT-15 colon.
Test [3] concerns A549 NSCLC.
The subject of test [4] is SK-OV-3 ovarian.
For test [5], the system named is SNB-19 CNS.
In test [6] the test system is HOP-62 NSCLC.
The subject of test [7] is SN12C renal.
Test [8] relates to SK-MEL-28 melanoma.
The subject of test [9] is SR leukemia.
Test [10] deals with KM12 colon.

Structures are written as SMILES. Several values for one entry are separate records, joined by “and”; a condition that tells them apart may be missing. Equal values may be shown once.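 In this assay, cells in 96-well plates receive the compound at five concentrations for 48 hours. Endpoints are linearly interpolated between the surrounding concentrations. GI50: concentration for 50% inhibition of growth. At the TGI there is no net growth.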

In the case of `N#COc1ccc(Oc2ccccc2)cc1`, the TGI was 40.9 µM in test [1]; greater than 100 µM in [2]; greater than 100 µM in test [3]; greater than 100 µM in test [4]; greater than 100 µM in [5]; greater than 100 µM in [6]. For the same compound, the TGI is greater than 100 µM in test [7], greater than 100 µM in test [8], 50 µM in [9] and greater than 100 µM in test [10].

For the compound `COc1ccc(C(C)c2cc(OC)c(OC)c(OC)c2)cc1` (stereo not given), the GI50 in [1] is 0.537 µM; in [2], 0.088 µM; in test [3], 0.189 µM; in test [4], 0.159 µM; in test [5] it was 0.221 µM; in test [6], 0.259 µM. Moreover, the GI50 was 0.546 µM in test [7], 25.2 µM in test [8], 0.0303 µM in test [9] and 0.058 µM in test [10]. For the same compound, the TGI in test [1], in [2], in [3], in test [4], in test [5] and in test [6] was greater than 50 µM in each case. Further, the TGI in [7], in test [8], in test [9] and in [10] was greater than 50 µM each time.

As for `CC1=C(/C=C/C(=O)CC(=O)/C=C/C2=C(C)CCCC2(C)C)C(C)(C)CCC1`, the GI50 is 18.5 µM in test [1]; 30.8 µM in [2]; 34.2 µM in test [3]; 40.6 µM in [4]; 33.2 µM in [5]; 32.3 µM in [6]. In addition, the GI50 in test [7] is 40.3 µM; in test [8], 27 µM; in test [9], 11.9 µM; in test [10], 32.9 µM. Further, the TGI in test [1] is 81 µM; in test [2] it was greater than 100 µM; in [3], greater than 100 µM; in test [4] it was greater than 100 µM; in [5], greater than 100 µM; in test [6], greater than 100 µM. Also, the TGI in test [7] is greater than 100 µM; in [8] it was greater than 100 µM; in test [9], 40.4 µM; in test [10], greater than 100 µM.

Take `O=C(NCCc1ccccc1)Nc1ccc2cc3ccc(NC(=O)NCCc4ccccc4)cc3nc2c1`: the GI50 in test [1] is 0.202 µM; in test [2], greater than 100 µM; in [3], 3.16 µM; in test [4] it was 1.51 µM; in test [5], 1.4 µM; in [6], 1.55 µM. Moreover, the GI50 was 0.42 µM in test [7], 1.43 µM in [8], 0.392 µM in test [9] and 1.64 µM in test [10]. Besides, the TGI was 0.445 µM in test [1]; greater than 100 µM in test [2]; 14.7 µM in [3]; 3 µM in [4]; 2.97 µM in test [5]; 3.75 µM in test [6]. The TGI was determined as 1.6 µM in test [7], 2.8 µM in [8], 16 µM in test [9] and 4.42 µM in [10].

For the compound `CN1CCN(c2ccc(OC(F)(F)F)c(Nc3ncc4c(n3)-c3c(c(C(N)=O)nn3CCO)CC4)c2)CC1`, the GI50 is 0.0372 µM and 0.0519 µM in [1]; 0.213 µM and 0.266 µM in test [2]; 0.0745 µM and 0.169 µM in [3]; 0.108 µM and 0.124 µM in test [4]; 0.0611 µM and 0.0674 µM in test [5]; 0.0723 µM and 0.0547 µM in test [6]. Further, the GI50 in test [7] was 1.13 µM and 0.721 µM; in [8], 0.738 µM; in test [9] it was 0.0231 µM and 0.03 µM; in [10], 0.0328 µM and 0.0354 µM. Also, the TGI in test [1] was 16.1 µM and > 3.87 µM; in [2] it was greater than 100 µM; in test [3], 16 µM and > 10 µM; in test [4], 30.6 µM and > 10 µM; in [5], greater than 100 µM; in test [6] it was 27.1 µM and > 10 µM. Besides, the TGI was 20.7 µM and > 10 µM in test [7]; greater than 10 µM in [8]; 18.6 µM and > 3.19 µM in [9]; 35.4 µM and > 10 µM in test [10].

In the case of `C/C=C/C/C=C/[C@H](C)C[C@H](O)[C@@H]1C[C@@H]2O[C@H]2/C=C/[C@@H]2OC(C)(C)O[C@H]2/C=C/C[C@H](C)CC(=O)O1`, the GI50 in test [1] was 7.62 µM; in test [2], 4.84 µM; in test [3] it was 8.79 µM; in test [4], 24.5 µM; in [5], 21.7 µM; in test [6], 15.1 µM. The GI50 in [7] is 5.23 µM; in test [8], 47.8 µM; in test [9], 8.08 µM; in test [10], 7.85 µM. Also, the TGI was greater than 100 µM in test [1]; greater than 100 µM in test [2]; greater than 100 µM in test [3]; greater than 100 µM in [4]; greater than 100 µM in [5]; 90.2 µM in test [6]. Further, the TGI in test [7], in [8], in test [9] and in test [10] was greater than 100 µM in each case.

Regarding `CNC(=O)c1cc(Oc2cccc3nc(NC(=O)Nc4cc(C(F)(F)F)cc(C(F)(F)F)c4)ccc23)ccn1`, the GI50 in test [1] was 3.26 µM; in [2], 18.1 µM; in [3], 4.54 µM; in test [4], 2.99 µM; in test [5] it was 5.31 µM; in [6] it was 3.37 µM. Further, the GI50 in test [7] was 5.27 µM; in test [8], 4.67 µM; in test [9] it was 13 µM; in [10] it was 15.2 µM. Also, the TGI in test [1] was 29.5 µM; in test [2] it was greater than 100 µM; in test [3] it was greater than 100 µM; in [4] it was 10.1 µM; in test [5], 38 µM; in [6] it was 10.4 µM. In addition, the TGI in test [7], in [8], in test [9] and in [10] was greater than 100 µM each time.

`CCO/S(=N/S(=O)(=O)c1ccccc1)c1ccccc1[N+](=O)[O-]` (stereo not given): the TGI in [1], in [2], in [3], in test [4], in test [5] and in test [6] was greater than 100 µM in each case. In addition, the TGI in test [7], in [8], in test [9] and in test [10] was greater than 100 µM in each case.

Values taken from PubChem BioAssay (NCI).
